Results published in patent US20030190334A1, “Low dose liquid entecavir formulations and use” (priority 2002, published 2003).

Experiment: Reaction of entecavir with sweetener or flavoring agent that contains aldehyde and/or ketone groups
Assay type: physicochemical
Description: While entecavir is potent, it is also extremely bitter. To combat the bitterness, a sweetener is generally used. However, entecavir has shown a tendency to react with commonly used sweeteners, such as sucrose, creating stability concerns. Entecavir has a primary amine group in its structure that has the propensity to react with any sweetener or flavoring agent that contains aldehyde and/or ketone groups.

reaction with sweetener or flavoring agent that contains aldehyde and/or ketone groups (pH 5 to 7): minimized | reaction with sweetener or flavoring agent that contains aldehyde and/or ketone groups (weakly acidic pH (pH 3 to 4)): more pronounced
Structure (SMILES): C=C1[C@H](CO)[C@@H](O)C[C@@H]1n1cnc2c(=O)[nH]c(N)nc21 [Entecavir, [1S-(1α,3α,4β)]-2-amino-1,9-dihydro-9-[4-hydroxy-3-(hydroxymethyl)-2-methylenecyclopentyl]-6H-purin-6-one]
